Measured values reported in patent US12162855B2, “Tetrahydroquinolino derivatives for the treatment of metastatic and chemoresistant cancers” (THE TRUSTEES OF PRINCETON UNIVERSITY, priority 2018, dated 2024).

Molecular target: T1, ALDH1a3 (Homo sapiens, UniProt P47895)
T1 construct: lentiviral vectors containing either the vector backbone or full-length human Aldh1a3; expressed in transfected cells; host or cells: SUM159-M1a (A1) and SUM159 (A7) breast cancer cells, lentiviral pLex vector, puromycin selection
T1 sequence (P47895 1-512): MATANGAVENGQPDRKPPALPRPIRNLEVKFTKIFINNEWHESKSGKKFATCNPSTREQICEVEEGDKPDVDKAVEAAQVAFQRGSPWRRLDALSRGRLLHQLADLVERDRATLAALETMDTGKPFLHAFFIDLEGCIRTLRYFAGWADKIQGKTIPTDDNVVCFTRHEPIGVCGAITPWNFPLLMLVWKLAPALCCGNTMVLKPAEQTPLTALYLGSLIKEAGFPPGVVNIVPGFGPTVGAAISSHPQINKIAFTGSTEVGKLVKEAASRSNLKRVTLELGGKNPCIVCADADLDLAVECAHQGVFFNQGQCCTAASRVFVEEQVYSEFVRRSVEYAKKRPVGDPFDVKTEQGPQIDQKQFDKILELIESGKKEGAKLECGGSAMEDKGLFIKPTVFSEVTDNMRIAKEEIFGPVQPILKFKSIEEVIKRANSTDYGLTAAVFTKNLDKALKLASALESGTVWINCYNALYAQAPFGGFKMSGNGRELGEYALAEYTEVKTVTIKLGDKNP
Assay: ALDEFLUOR assay in SUM159-M1a-Aldh1a3 cells (flow cytometry)
Type: cell-based
Settings: for inhibition at 0.1 µM / Percent of Cells Positive for ALDEFLUOR at 100 nM: SUM159-M1a-Aldh1a3 cells, compound at 100 nM; for inhibition at 0.1 µM: read-out: Inhibitory Activity at 100 nM (%)
Description: Cells were counted, centrifuged and resuspended at 1,000,000 cells/mL in ALDEFLUOR™ buffer (Stemcell Technologies). ALDEFLUOR™ substrate (Stemcell Technologies, 1:200) and test compound or 1 mM DEAB were added to cell suspension and incubated at 37° C. for 45 minutes with vortexing every 15 minutes. Cells were centrifuged and resuspended in ALDEFLUOR™ buffer with DAPI at 5 μg/mL. Samples were analyzed with the BD LSR2 flow cytometry platform. Gating was performed using DEAB as a negative control.
Gating for background fluorescence was performed using 1 millimolar DEAB as a negative control.
The [inh-min] threshold was set at the lower bound of two standard deviations of control samples, while the IC50 threshold was set at 50% of the average of control samples.
High activity was gated at the 99th percentile of cells at a MBE1.5 concentration of 10 nanomolar. The [inh-min] threshold was set at the lower bound of two standard deviations of control samples.
An ALDEFLUOR™ assay was also used to assess the relative activity of several compounds described herein against SUM159-M1a-Aldh1a3 cells. The activity of several compounds in the assay at a concentration of 100 nM is reported in Table 1, along with the chemical structure and compound name associated with each compound.

Row | SMILES | inhibition at 0.1 µM [%] | Percent of Cells Positive for ALDEFLUOR at 100 nM [%] | inhibition of ALDH1a3 activity (FIG. 1A) (compounds at 100 nM) | relative potency, ALDEFLUOR activity (FIG. 12) (concentration of 10 nM, compared to DMSO or DEAB-treated cells)
1 | O=C1CCc2cc(NCc3ccccc3)ccc2N1 [MBE3.4, 6-(benzylamino)-3,4-dihydroquinolin-2(1H)-one] | 11 |  |  | 
2 | O=C1CCc2cc(NCc3ccc[nH]3)c(F)cc2N1 [MBE3.8, 6-(((1H-pyrrol-2-yl)methyl)amino)-7-fluoro-3,4-dihydroquinolin-2(1H)-one] | 2 | 75 |  | 
3 | O=C1CCc2cc(NC(=O)c3ccncc3F)c(F)cc2N1 [MBE3.5, 3-fluoro-N-(7-fluoro-2-oxo-1,2,3,4-tetrahydroquinolin-6-yl)isonicotinamide] | 18 | 63 |  | 
4 | CC(C)Cc1ccccc1C(=O)Nc1cc2c(cc1F)NC(=O)CC2 [MBE1.5C, N-(7-fluoro-2-oxo-1,2,3,4-tetrahydroquinolin-6-yl)-2-isobutylbenzamide] |  |  |  | nearly twice as potent as MBE 1.5, MBE 1.5A or MBE 1.5D

The next lines start with results.

Row | inhibition at 0.1 µM [%] | Percent of Cells Positive for ALDEFLUOR at 100 nM [%] | SMILES | inhibition of ALDH1a3 activity (FIG. 1A) (compounds at 100 nM) | relative potency, ALDEFLUOR activity (FIG. 12) (concentration of 10 nM, compared to DMSO or DEAB-treated cells)
5 | 42 |  | Cc1ccccc1C(=O)Nc1ccc2c(c1)CCC(=O)N2 [MBE3.3, 2-methyl-N-(2-oxo-1,2,3,4-tetrahydroquinolin-6-yl)benzamide] |  | 
6 | 29 | 55 | Cc1cncc(C(=O)Nc2cc3c(cc2F)NC(=O)CC3)c1 [MBE3.6, N-(7-fluoro-2-oxo-1,2,3,4-tetrahydroquinolin-6-yl)-5-methylnicotinamide] |  | 
7 | 83 | 13 | CCc1cnccc1C(=O)Nc1ccc2c(c1)CCC(=O)N2 [MBE1.6, 3-ethyl-N-(2-oxo-1,2,3,4-tetrahydroquinolin-6-yl)isonicotinamide] | high-affinity compounds for the inhibition of ALDH1a3 activity | 
8 | 3.3 |  | Cc1ccc(C(=O)Nc2ccc3c(c2)CCC(=O)N3)c(C)c1 [MBE3.2, 2,4-dimethyl-N-(2-oxo-1,2,3,4-tetrahydroquinolin-6-yl)benzamide] |  | 
9 | 8 |  | O=C1CCc2cc(NC(=O)c3ccncc3)c(F)cc2N1 [MBE1.2, N-(7-fluoro-2-oxo-1,2,3,4-tetrahydroquinolin-6-yl)isonicotinamide] |  | 
10 | 0.6 |  | Cc1ccc(C(=O)Nc2ccc3c(c2)CCC(=O)N3)cc1C [MBE3.1, 3,4-dimethyl-N-(2-oxo-1,2,3,4-tetrahydroquinolin-6-yl)benzamide] |  | 
11 | 45 |  | Cc1ccc(C)c(CNc2ccc3c(c2)CCC(=O)N3)c1 [MBE2, 6-((2,5-dimethylbenzyl)amino)-3,4-dihydroquinolin-2(1H)-one] |  | 
